Reference: patent US20060148838A1, “Novel pyrrolodihydroisoquinolines useful in the treatment of cancer” (Altana Pharma AG, priority 2003, published 2006)

Legend:
[1] = system: NCl-H460 non-small cell lung cancer cells; test: Alamar Blue cell viability assay, anti-proliferative/cytotoxic activity; assay type: cell-based; details: 72 hours incubation, one range stated for all listed Examples, read-out: −log IC50 NCl-H460 (converted)
Method: The anti-proliferative/cytotoxic activity of the compounds described herein, can be tested on NCl-H460 non-small cell lung cancer cells using the Alamar Blue cell viability assay (described in O'Brien et al. Eur J Biochem 267, 5421-5426, 2000). The compounds are dissolved as 20 mM solutions in dimethylsulfoxide (DMSO) and subsequently diluted in semi-logarithmic steps. DMSO dilutions are further diluted 1:100 into Dulbecco's modified Eagle's medium (DMEM) containing 10% fetal calf serum to a final concentration twice as much as the final concentration in the test. NCl-460 cells are seeded into 96 well flat bottom plates at a density of 4000 cells per well in a volume of 50 μl per well. 24 hours after seeding the 50 μl each of the compound dilutions in DMEM medium are added into each well of the 96 Well plate. Each compound dilution is tested as quadruplicates. Wells containing untreated control cells are filled with 50 μl DMEM medium containing 1% DMSO. The cells are then incubated with the substances for 72 hours at 37° C. In a humified atmosphere containing 5% carbon dioxide. To determine the viability of the cells, 10 μl of an Alamar Blue solution (Biosource) are added and the fluorescence is measured at an extinction of 544 nm and an emission of 590 nm. For the calculation of cell viability the emission value from untreated cells is set to 100% viability and the emission rates of treated cells are set in relation to the values of untreated cells. Viabilities are expressed as % values.
The corresponding IC50 values of the compounds for anti-proliferative/cytotoxic activity are determined from the concentration-effect curves.
Representative advantageous IC50 values for anti-proliferation/cytotoxicity determined for the compounds mentioned and numbered as Examples in the examples above follow from the following table A, in which the numbers of the compound correspond to the numbers of the examples.

| Structure (SMILES) | IC50 [1] | melting point |
| --- | --- | --- |
| CCOC(=O)c1c(-c2cc(C)c(O)c(C)c2)c(C)n2c1-c1cc(OC)c(OC(F)F)cc1CC2 [Example 9, 8-(1,1-Difluoro-methoxy)-2-(4-hydroxy-3,5-dimethyl-phenyl)-9-methoxy-3-methyl-5,6-dihydro-pyrrolo[2,1-a]isoquinoline-1-carboxylic acid ethyl ester] | 398 to 3160 nM | 126 to 128 °C |
| CCOC(=O)c1c(-c2cc(C)c(O)c(C)c2)c(C)n2c1-c1cc(OC)c(OCCOC)cc1CC2 [Example 18, 2-(4-Hydroxy-3,5-dimethyl-phenyl)-9-methoxy-8-(2-methoxy-ethoxy)-3-methyl-5,6-dihydro-pyrrolo[2,1-a]isoquinoline-1-carboxylic acid ethyl ester] | 398 to 3160 nM | 169 to 171 °C |
| CCOC(=O)c1c(-c2cccc3ccccc23)c(C)n2c1-c1cc(OC)c(OCCOC)cc1CC2 [Example 20, 9-Methoxy-8-(2-methoxy-ethoxy)-3-methyl-2-naphthalen-1-yl-5,6-dihydro-pyrrolo[2,1-a]isoquinoline-1-carboxylic acid ethyl ester] | 398 to 3160 nM | 126 to 128 °C |
| CCOC(=O)c1c(-c2cc(C)c(O)c(C)c2)c(C)n2c1-c1cc([N+](=O)[O-])c(OC)cc1CC2 [Example 22, 2-(4-Hydroxy-3,5-dimethyl-phenyl)-8-methoxy-3-methyl-9-nitro-5,6-dihydro-pyrrolo[2,1-a]isoquinoline-1-carboxylic acid ethyl ester] | 398 to 3160 nM | 209 to 211 °C |
| CCOC(=O)c1c(-c2cc(C)c(O)c(C)c2)c(C)n2c1-c1cc(N)c(OC)cc1CC2 [Example 25, 9-Amino-2-(4-hydroxy-3,5-dimethyl-phenyl)-8-methoxy-3-methyl-5,6-dihydro-pyrrolo[2,1-a]isoquinoline-1-carboxylic acid ethyl ester] | 398 to 3160 nM | 104 to 106 °C |
| COc1cc2c(cc1OC)-c1c(C(=O)NC3CCCCC3)c(-c3cc(C)c(O)c(C)c3)c(C)n1CC2 [Example 28, 2-(4-Hydroxy-3,5-dimethyl-phenyl)-8,9-dimethoxy-3-methyl-5,6-dihydro-pyrrolo[2,1-a]isoquinoline-1-carboxylic acid cyclohexyl amide] | 398 to 3160 nM | 273 to 276 °C |
| COc1cc2c(cc1OC)-c1c(C(=O)Nc3ccccc3)c(-c3cc(C)c(O)c(C)c3)c(C)n1CC2 [Example 34, 2-(4-Hydroxy-3,5-dimethyl-phenyl)-8,9-dimethoxy-3-methyl-5,6-dihydro-pyrrolo[2,1-a]isoquinoline-1-carboxylic acid phenylamide] | 398 to 3160 nM | 271 to 273 °C |
| CCC(C)NC(=O)c1c(-c2cc(C)c(O)c(C)c2)c(C)n2c1-c1cc(OC)c(OC)cc1CC2 (stereo not shown) [Example 36, 2-(4-Hydroxy-3,5-dimethyl-phenyl)-8,9-dimethoxy-3-methyl-5,6-dihydro-pyrrolo[2,1-a]isoquinoline-1-carboxylic acid sec-butylamide] | 398 to 3160 nM | 238 to 240 °C |
